ChEMBL document CHEMBL5506049, “Discovery of Novel Small-Molecule-Based Potential PD-L1/EGFR Dual Inhibitors with High Druggability for Glioblastoma Immunotherapy” (J Med Chem, 2024)

How the values were obtained:
U-87 MG = experiment: cells; conditions: Homo sapiens, 72 h
Description: Antiproliferative activity against human U-87 MG cells incubated for 72 hrs by MTT assay

U-251 = experiment: cells; conditions: Homo sapiens, U-251, 72 h
Description: Antiproliferative activity against human U-251 cells incubated for 72 hrs by MTT assay

cells [1] = conditions: GL261, 72 h
Description: Antiproliferative activity against human GL261 cells incubated for 72 hrs by MTT assay

cells [2] = conditions: Homo sapiens, U87MG Human EGFR vIII, 72 h
Description: Antiproliferative activity against human U87vIII cells expressing EGFRvIII incubated for 72 hrs by MTT assay

[3] = target: Programmed cell death protein 1/Programmed cell death 1 ligand 1 (Homo sapiens, UniProt Q9NZQ7); experiment: Inhibition of PD-1/PD-L1 (unknown origin) interaction assessed as inhibition rate incubated for 1 hr by HTRF assay relative to control; format: protein-complex assay
[4] = In vivo antitumor activity against […] GL261 cells xenografted in C57BL/6 mouse assessed as decrease in tumor weight at 100 mg/kg, IG treated for 21 days relative to control; format: functional; design: scale not given: the % may be the effect or the level left; conditions: time 21 day
[5] = In vivo antitumor activity against […] GL261 cells xenografted in C57BL/6 mouse assessed as decrease in tumor volume at 100 mg/kg, IG treated for 21 days relative to control; format: functional; design: scale not given: the % may be the effect or the level left; conditions: time 21 day
Glioblastoma cell line [6] = experiment: Antitumor immunity against glioblastoma bearing C57BL/6 mouse model assessed as tumor infiltrating lymphocytes by measuring increase in CD3+CD4+T cells at 100 mg/kg, IG (reference value: 0.91%); format: functional
Glioblastoma cell line [7] = experiment: Antitumor immunity against glioblastoma bearing C57BL/6 mouse model assessed as tumor infiltrating lymphocytes by measuring increase in CD3+CD8+T cells at 100 mg/kg, IG (reference value: 3.44%); format: functional
[8] = In vivo antitumor activity against […] GL261 cells xenografted in C57BL/6 mouse assessed as decrease in EGFR phosphorylation in tumor tissue at 100 mg/kg, IG treated for 21 days relative to control; format: functional; design: scale not given: the % may be the effect or the level left; conditions: time 21 day
[9] = In vivo antitumor activity against […] GL261 cells xenografted in C57BL/6 mouse assessed as decrease in PD-L1 expression in tumor tissue at 100 mg/kg, IG treated for 21 days relative to control; format: functional; design: scale not given: the % may be the effect or the level left; conditions: time 21 day

Sequence of Programmed cell death protein 1/Programmed cell death 1 ligand 1 (Q15116 whole entry): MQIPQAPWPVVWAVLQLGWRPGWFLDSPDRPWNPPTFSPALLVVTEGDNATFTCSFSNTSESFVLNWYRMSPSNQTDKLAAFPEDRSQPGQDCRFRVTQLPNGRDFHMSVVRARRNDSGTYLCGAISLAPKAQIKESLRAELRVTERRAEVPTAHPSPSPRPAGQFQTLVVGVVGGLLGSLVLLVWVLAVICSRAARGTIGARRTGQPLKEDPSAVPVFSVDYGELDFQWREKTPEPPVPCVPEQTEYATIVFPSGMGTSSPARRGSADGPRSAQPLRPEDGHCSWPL
Sequence of Programmed cell death protein 1/Programmed cell death 1 ligand 1 (Q9NZQ7 whole entry): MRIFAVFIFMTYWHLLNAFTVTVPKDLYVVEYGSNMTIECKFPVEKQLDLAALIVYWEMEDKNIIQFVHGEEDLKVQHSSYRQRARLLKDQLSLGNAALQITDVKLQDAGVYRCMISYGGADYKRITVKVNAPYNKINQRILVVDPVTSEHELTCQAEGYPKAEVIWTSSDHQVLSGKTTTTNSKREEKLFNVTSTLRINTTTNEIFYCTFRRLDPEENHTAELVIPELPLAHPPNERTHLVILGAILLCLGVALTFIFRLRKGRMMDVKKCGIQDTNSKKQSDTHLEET

Compound | IC50 (U-87 MG) [nM] | IC50 (U-251) [nM] | IC50 (cells [1]) [nM] | IC50 (cells [2]) [nM] | IC50 [3] [nM] | Activity [4] [%] | Activity [5] [%] | Activity (Glioblastoma cell line [6]) [%] | Activity (Glioblastoma cell line [7]) [%] | Activity [8] [%] | Activity [9] [%]
COc1cc2ncnc(Nc3ccc(F)c(Cl)c3)c2cc1OCCCCCCNC(=O)CCN(C)Cc1ccc(-c2cccc(-c3ccccc3)c2C)nc1OC | > 20000 | > 20000 | > 20000 | > 20000 |  |  |  |  |  |  | 
COc1cc2ncnc(Nc3ccc(F)c(Cl)c3)c2cc1OCCCCNCc1c(OC)cc(OCc2cccc(-c3ccccc3)c2C)cc1OC | 860 | 1330 | 1790 | 360 |  |  |  |  |  |  | 
COc1cc2ncnc(Nc3ccc(F)c(Cl)c3)c2cc1OCCCCNC(=O)C1CCCCN1Cc1ccc(-c2cccc(-c3ccccc3)c2C)nc1OC (configuration not stated) | > 20000 | > 20000 | > 20000 | > 20000 |  |  |  |  |  |  | 
COc1cc2ncnc(Nc3ccc(F)c(Cl)c3)c2cc1OCCCCCNC(=O)C1CCCCN1Cc1c(OC)cc(OCc2cccc(-c3ccccc3)c2C)cc1OC (configuration not stated) | > 20000 | > 20000 | > 20000 | > 20000 |  |  |  |  |  |  | 
COc1cc2ncnc(Nc3ccc(F)c(Cl)c3)c2cc1OCCCCCNC(=O)CN(C)Cc1c(OC)cc(OCc2cccc(-c3ccccc3)c2C)cc1OC | 5160 | > 20000 | > 20000 | 3120 |  |  |  |  |  |  | 
COc1cc2ncnc(Nc3ccc(F)c(Cl)c3)c2cc1OCCCNCc1c(OC)cc(OCc2cccc(-c3ccccc3)c2C)cc1OC | 1060 | 1470 | 2390 | 1390 |  |  |  |  |  |  | 
COc1cc2ncnc(Nc3ccc(F)c(Cl)c3)c2cc1OCCCCCCNC(=O)C1CCCCN1Cc1ccc(OCc2cccc(-c3ccccc3)c2C)c(C)c1 (configuration not stated) | > 20000 | > 20000 | > 20000 | > 20000 |  |  |  |  |  |  | 
COc1cc2ncnc(Nc3ccc(F)c(Cl)c3)c2cc1OCCCCCNC(=O)C1CCCCN1Cc1ccc(-c2cccc(-c3ccccc3)c2C)nc1OC (configuration not stated) | > 20000 | > 20000 | > 20000 | > 20000 |  |  |  |  |  |  | 
COc1cc2ncnc(Nc3ccc(F)c(Cl)c3)c2cc1OCCCCCNCc1c(OC)cc(OCc2cccc(-c3ccccc3)c2C)cc1OC | 1350 | 1040 | 2240 | 440 |  |  |  |  |  |  | 
COc1cc2ncnc(Nc3ccc(F)c(Cl)c3)c2cc1OCCNCc1c(OC)cc(OCc2cccc(-c3ccccc3)c2C)cc1OC | 3330 | 1960 | 3220 | 2840 |  |  |  |  |  |  | 
COc1cc2ncnc(Nc3ccc(F)c(Cl)c3)c2cc1OCCCN1CCOCC1 [GEFITINIB] |  |  |  |  |  | 77.2 | 71.2 |  |  | ~30 | ~15
COc1cc2ncnc(Nc3ccc(F)c(Cl)c3)c2cc1OCCCCCCNCc1c(OC)cc(OCc2cccc(-c3ccccc3)c2C)cc1OC | 2850 | 1550 | 2760 | 540 |  |  |  |  |  |  | 
COc1cc2ncnc(Nc3ccc(F)c(Cl)c3)c2cc1OC(=O)N1CCN(Cc2c(OC)cc(OCc3cccc(-c4ccccc4)c3C)cc2OC)CC1 | > 20000 | > 20000 | > 20000 | > 20000 |  |  |  |  |  |  | 
COc1cc2ncnc(Nc3ccc(F)c(Cl)c3)c2cc1OCCCCCCNC(=O)C1CCCCN1Cc1c(OC)cc(OCc2cccc(-c3ccccc3)c2C)cc1OC (configuration not stated) | > 20000 | > 20000 | > 20000 | > 20000 |  |  |  |  |  |  | 
COc1cc2ncnc(Nc3ccc(F)c(Cl)c3)c2cc1OCCCCCCCCNC(=O)CN(C)Cc1c(OC)cc(OCc2cccc(-c3ccccc3)c2C)cc1OC | > 20000 | > 20000 | > 20000 | > 20000 |  |  |  |  |  |  | 
COc1cc2ncnc(Nc3ccc(F)c(Cl)c3)c2cc1OC(=O)N1CCN(Cc2ccc(-c3cccc(-c4ccccc4)c3C)nc2OC)CC1 | > 20000 | > 20000 | > 20000 | > 20000 |  |  |  |  |  |  | 

More lines, main results first:

IC50 (U-87 MG) [nM] | IC50 (U-251) [nM] | IC50 (cells [1]) [nM] | IC50 (cells [2]) [nM] | Compound | IC50 [3] [nM] | Activity [4] [%] | Activity [5] [%] | Activity (Glioblastoma cell line [6]) [%] | Activity (Glioblastoma cell line [7]) [%] | Activity [8] [%] | Activity [9] [%]
3720 | 2980 | 5720 | 8030 | COc1nc(OCc2cccc(-c3ccccc3)c2C)ccc1CNCCNC(C)=O |  |  |  |  |  |  | 
> 20000 | > 20000 | > 20000 | > 20000 | Cc1c(COc2cc(OCc3cccc(C#N)c3)c(CNC(C)(C)C(=O)O)cc2Cl)cccc1-c1ccccc1 | 56.2 | 77.2 | 71.1 | 24.7 | 19.7 |  | 
1080 | 5120 | 2630 | 820 | COc1cc2ncnc(Nc3ccc(F)c(Cl)c3)c2cc1OCCCNCc1ccc(-c2cccc(-c3ccccc3)c2C)nc1OC |  |  |  |  |  |  | 
840 | 1290 | 1240 | 290 | COc1cc(OCc2cccc(-c3ccccc3)c2C)ccc1CNCCCCOc1cc2c(Nc3cccc(Cl)c3F)ncnc2cc1OC |  |  |  |  |  |  | 
1080 | 1870 | 3250 | 730 | COc1cc2ncnc(Nc3ccc(F)c(Cl)c3)c2cc1OCCCCCCNCc1ccc(-c2cccc(-c3ccccc3)c2C)nc1OC |  |  |  |  |  |  | 
890 | 1380 | 2250 | 730 | COc1cc2ncnc(Nc3ccc(F)c(Cl)c3)c2cc1OCCCCNCc1ccc(OCc2cccc(-c3ccccc3)c2C)c(C)c1 |  |  |  |  |  |  | 
1150 | 3530 | 3300 | 2010 | COc1cc2ncnc(Nc3ccc(F)c(Cl)c3)c2cc1OCCCCCCCCNCc1ccc(-c2cccc(-c3ccccc3)c2C)nc1OC |  |  |  |  |  |  | 
3380 | 1350 | 2160 | 530 | COc1cc2ncnc(Nc3ccc(F)c(Cl)c3)c2cc1OCCCCCNCc1ccc(-c2cccc(-c3ccccc3)c2C)nc1OC |  |  |  |  |  |  | 
2600 | 1470 | 1970 | 800 | COc1cc(OCc2cccc(-c3ccccc3)c2C)ccc1CNCCCCOc1cc2c(Nc3ccc(F)c(Cl)c3)ncnc2cc1OC |  |  |  |  |  |  | 
5760 | 2640 | 6860 | 1140 | COc1cc2ncnc(Nc3ccc(F)c(Cl)c3)c2cc1OCCNCc1ccc(-c2cccc(-c3ccccc3)c2C)nc1OC |  |  |  |  |  |  | 
1030 | 2850 | 2720 | 2610 | COc1cc2ncnc(Nc3ccc(F)c(Cl)c3)c2cc1OCCCCNCc1ccc(-c2cccc(-c3ccccc3)c2C)nc1OC |  |  |  |  |  |  | 
4010 | 3490 | 5460 | 960 | COc1cc(OCc2cccc(-c3ccccc3)c2C)ccc1CNCCCOc1cc2c(Nc3ccc(F)c(Cl)c3)ncnc2cc1OC |  |  |  |  |  |  | 
